The values that follow come from patent US12018020B2, “Crystalline forms of 1-[(3R,4S)-4-cyanotetrahydropyran-3-yl]-3-[(2-fluoro-6-methoxy-4-pyridyl)amino]pyrazole-4-carboxamide” (Intervet Inc., priority 2018, dated 2024).

Structures are written as SMILES. In brackets after ≈: the same amount, converted by molar mass. Like-named read-outs stand apart in the source and are kept apart here.

Holding throughout (type): physicochemical
A short description of series [1]: Solubility in 7/3 v/v toluene/MeOH.
Series [2] can be described thus: Storage stability (processability assessment), 12 months. The text has this:
There is a risk of Form 2 conversion to hydrate at the typical wet granulation temperature when seeds of hydrate are present.

A short description of series [3]: Slurry form-conversion experiments in organic solvents (relative thermodynamic stability). The text has this:
Form 1 and Form 2 are monotropically related.
This is evidence that Form 1 is more thermodynamically stable than Form 2.

Series [4] is described as follows: Conversion to hydrate risk: slurry in 5% SLS aqueous solution seeded with 5% hydrate seeds, PXRD. The note with it: 20 mg/mL in 5% SLS aqueous solution, 24 hours. Here is the method:
Slurry experiments in water containing 5% SLS were used to assess the risk of form conversion during wet granulation. Typical wet granulation conditions include drying at 60 to 70° C. for 1.5 to 2 hours.
Slurries containing 20 mg/mL of either Form 1 or Form 2 in 5% sodium lauryl sulfate (SLS) aqueous solution were seeded with 5% hydrate seeds and monitored for form change with PXRD over 24 hours at room temperature and at 80° C.

[5] abbreviates: 40° C./75% relative humidity (RH).

Take `COc1cc(Nc2nn([C@H]3COCC[C@@H]3C#N)cc2C(N)=O)cc(F)n1` [Form 1, 1-[(3R,4S)-4-cyanotetrahydropyran-3-yl]-3-[(2-fluoro-6-methoxy-4-pyridyl)amino]pyrazole-4-carboxamide]: the solubility amounted to 3400 µg/mL (≈ 9.44 mM) in series [1] (25 °C, organic solvent or mixture, 25 °C, read-out: Solubility); 6600 µg/mL (≈ 18.3 mM) in series [1] (40 °C, organic solvent or mixture, 40 °C, read-out: Solubility); 12500 µg/mL (≈ 34.7 mM) in series [1] (60 °C, organic solvent or mixture, 60 °C, read-out: Solubility). Moreover, the “Physical and chemical stability on storage” value in series [2] (setting [5]) was “physically and chemically stable”; in series [2] (55° C.), “physically and chemically stable”. For the same compound, the Relative thermodynamic stability entry in series [3] (Form 1 versus Form 2, monotropically related) is reported as “more stable than Form 2”. The Form after slurry entry in series [3] (slurried in MeOH, 3 weeks, room temperature) is on record as “remained as Form 1”. The “Hydrate peak growth (PXRD)” value in series [4] (80° C.) and in series [4] (room temperature) was “No hydrate peak growth observed” each time.
On to `COc1cc(Nc2nn([C@H]3COCC[C@@H]3C#N)cc2C(N)=O)cc(F)n1` [Form 2, 1-[(3R,4S)-4-cyanotetrahydropyran-3-yl]-3-[(2-fluoro-6-methoxy-4-pyridyl)amino]pyrazole-4-carboxamide], for which the figures for the solubility in series [1] (25 °C), in series [1] (40 °C) and in series [1] (60 °C) were 4700 µg/mL (≈ 13 mM), 9300 µg/mL (≈ 25.8 mM) and 15600 µg/mL (≈ 43.3 mM), respectively. Moreover, the “Physical and chemical stability on storage” value is “physically and chemically stable” in series [2] (setting [5]); “physically and chemically stable” in series [2] (55° C.). Moreover, in series [3] (2-Me-THF, Ethyl Acetate, MeOH or MeOH/toluene (70:30 v/v), 50° C., seeded with Form 1 at 14 days, 28 days total), the “Form conversion in slurry seeded with Form 1” value is “full or conversion to Form 1”. For the same compound, in series [3] (Ethyl Acetate and Isopropyl Acetate, 25° C., after 28 days), the “Form conversion in slurry” value is given as “Partial conversion”. Further, in series [3] (~10 mg each of Form 1 and Form 2 in 1 mL MeOH, 50° C., after 4 days), the “Form conversion in competitive slurry” value was “full conversion to Form 1”. The “Hydrate peak growth (PXRD)” value in series [4] (80° C.) is “no hydrate peak growth was observed”; in series [4] (room temperature) it was “hydrate peak growth was observed”.
For the compound `COc1cc(Nc2nn([C@H]3COCC[C@@H]3C#N)cc2C(N)=O)cc(F)n1` [Hydrate, 1-[(3R,4S)-4-cyanotetrahydropyran-3-yl]-3-[(2-fluoro-6-methoxy-4-pyridyl)amino]pyrazole-4-carboxamide], in series [3] (in aqueous solutions), the Relative thermodynamic stability result is “most stable form in aqueous solutions”.

The term solubility denotes how much of the substance goes into solution per volume.
